This note sets out measurements from patent publication US20150368209A1, “4-Pyrimidinylamino-benzenesulfonamide derivatives and their use for the inhibition of polo-like kinase 1 (PLK1) for the treatment of cancer and their use for the treatment of bacterial infections” (VICHEM CHEMIE KUTATÓ KFT., priority 2013, published 2015).

In data set [1] the test system is M. tuberculosis H37Rv. Kind of data set: Resazurin reduction microtiter assay (REMA), growth inhibition and MIC determination. It counts as cell-based. Particulars: Mycobacterium tuberculosis, 168 h, 7 days at 37° C.; for inhibition at 20 µM: at 20 uM compound, read-out: H37Rv inh % at 20 uM; for MIC: two-fold serial dilution from 100 to 0.16 μM, read-out: H37Rv MIC90.

Data set [2] deals with HepG2.
Data set [3] addresses T1, human PLK1 kinase domain (Homo sapiens, UniProt P53350).
T1 construct: Each reaction consisted of 30 nM enzyme PLK1 kinase domain
Kind of data set: In vitro PLK1 assay (IMAP fluorescence polarization kinase assay). It counts as biochemical. Conditions: for inhibition at 10 µM: at 10 uM compound; for IC50: 30 nM PLK1 kinase domain, 16 μM ATP (=Kmapp), 90 min at room temperature. The procedure:
The activity of the compounds described in the present invention was determined using a commercially available IMAP Screening Express Assay Kit (Molecular devices).
This method measures the change in the fluorescent polarization of a fluorescently-labeled peptide due to the effect of human PLK1 kinase domain on it. PLK1 kinase assays were performed in low protein binding 384-well plates (Corning 3676). Test compounds were diluted in 100% DMSO to 5 mM stock concentration, the further dilutions were made in H2O or 100% DMSO to desirable concentrations.
Each reaction consisted of 30 nM enzyme PLK1 kinase domain, 400 nM 5TAMRA-RGSFNDTLDFD-NH2 (Genecust Europe), 16 μM ATP (=Kmapp, Sigma-Aldrich) and kinase buffer: 20 mM HEPES pH 7.5 (Sigma-Aldrich), 1 mM DTT (Sigma-Aldrich), 10 mM MgCl2 (Sigma-Aldrich), 0.01% Triton X-100 (Sigma-Aldrich).
For each reaction, 4 or 6 μl containing 5TAMRA-RGSFNDTLDFD-NH2, ATP and kinase buffer were combined with 2 μl diluted compound in H2O or 0.04 μl compound in 100% DMSO. The kinase reaction was started by the addition of 2 μl diluted enzyme. The reaction was allowed to run for 90 minutes at room temperature. The reaction was stopped by adding 15 μl IMAP beads (1:1200 beads in progressive (40% buffer A, 60% buffer B) 1× buffer). After an additional 60 minutes, fluorescent polarization (Ex: 550-10 nm, Em: 590-10 nm, Dich: 561 nm) was measured using Analyst GT multimode reader (Molecular Devices).
(In general: Polarisation of emitted light reports the rotation of a fluorescent probe.)

Molecules are shown by their SMILES. In brackets after ≈: the same amount, converted by molar mass.

T1 sequence (P53350 53-305 limits assumed): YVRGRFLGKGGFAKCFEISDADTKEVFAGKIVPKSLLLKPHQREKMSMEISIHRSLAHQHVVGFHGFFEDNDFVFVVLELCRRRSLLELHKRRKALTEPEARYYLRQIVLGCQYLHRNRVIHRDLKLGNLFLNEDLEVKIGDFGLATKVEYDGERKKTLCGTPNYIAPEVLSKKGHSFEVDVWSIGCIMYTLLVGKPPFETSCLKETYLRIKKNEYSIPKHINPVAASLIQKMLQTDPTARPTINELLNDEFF

For the compound `COc1cccc(Cl)c1-c1cc(Nc2ccc(S(=O)(=O)Nc3onc(C)c3C)cc2)ncn1` [Example 15, 4-[6-(2-Chloro-6-methoxy-phenyl)-pyrimidin-4-ylamino]-N-(3,4-dimethyl-isoxazol-5-yl)-benzenesulfonamide], in data set [1], the inhibition at 20 µM stood at 102% and the MIC was found to be 0.292 µM (≈ 0.142 µg/mL). In addition, the “HepG2 TD50” value in data set [2] was determined as 0.0458. Further, the inhibition at 10 µM in data set [3] was found to be 96.4%.

Regarding `Cc1noc(NS(=O)(=O)c2ccc(Nc3cc(-c4cc(Cl)ccc4Cl)ncn3)cc2)c1C` [Example 16, 4-[6-(2,5-Dichloro-phenyl)-pyrimidin-4-ylamino]-N-(3,4-dimethyl-isoxazol-5-yl)-benzenesulfonamide], in data set [1], the inhibition at 20 µM is 100% and the MIC was 11.8 µM (≈ 5.76 µg/mL). In data set [2], the “HepG2 TD50” value was determined as 2.37. In addition, in data set [3], the IC50 worked out at 604 nM and the inhibition at 10 µM was 7.9%.

`Cc1noc(NS(=O)(=O)c2ccc(Nc3cc(-c4ccccc4C(N)=O)ncn3)cc2)c1C` [Example 26, 2-{6-[4-(3,4-Dimethyl-isoxazol-5-ylsulfamoyl)-phenylamino]-pyrimidin-4-yl}-benzamide]: the inhibition at 20 µM in data set [1] is -34.2%. In addition, the inhibition at 10 µM in data set [3] turned out to be 0%.

For the compound `Cc1noc(NS(=O)(=O)c2ccc(Nc3cc(-c4ccc(C(F)(F)F)cc4)ncn3)cc2)c1C` [Example 25, N-(3,4-Dimethyl-isoxazol-5-yl)-4-[6-(4-trifluoromethyl-phenyl)-pyrimidin-4-ylamino]-benzenesulfonamide], the inhibition at 20 µM in data set [1] was -9.8%. For the same compound, in data set [3], the inhibition at 10 µM came to 0%.

In the case of `COc1cc(Cl)ccc1-c1cc(Nc2ccc(S(=O)(=O)Nc3onc(C)c3C)cc2)ncn1` [Example 28, 4-[6-(4-Chloro-2-methoxy-phenyl)-pyrimidin-4-ylamino]-N-(3,4-dimethyl-isoxazol-5-yl)-benzenesulfonamide], in data set [1], the inhibition at 20 µM was found to be 0.6%. In data set [3], the IC50 amounted to 59 nM and the inhibition at 10 µM is 61.9%.

Take `Cc1noc(NS(=O)(=O)c2ccc(Nc3cc(-c4cccc5c4OCO5)ncn3)cc2)c1C` [Example 3, 4-(6-Benzo[1,3]dioxol-4-yl-pyrimidin-4-ylamino)-N-(3,4-dimethyl-isoxazol-5-yl)-benzenesulfonamide]: the inhibition at 20 µM in data set [1] is -7.2%. Further, in data set [3], the inhibition at 10 µM worked out at 48.5%.

For the compound `COc1ccccc1-c1cc(Nc2ccc(S(=O)(=O)NC(=O)C(C)C(C)=O)cc2)ncn1` (centres unmarked) [Example 41, 4-[6-(2-Methoxy-phenyl)-pyrimidin-4-ylamino]-N-(2-methyl-3-oxo-butyryl)-benzenesulfonamide], the inhibition at 20 µM in data set [1] is -4.8%. Also, the inhibition at 10 µM in data set [3] turned out to be 59%.

`Cc1noc(NS(=O)(=O)c2ccc(Nc3cc(-c4ccc5c(c4)OCO5)ncn3)cc2)c1C` [Example 11, 4-(6-Benzo[1,3]dioxol-5-yl-pyrimidin-4-ylamino)-N-(3,4-dimethyl-isoxazol-5-yl)-benzenesulfonamide]: the inhibition at 20 µM in data set [1] was -21.5%. In data set [3], the half-maximal inhibitory concentration (IC50) is 888 nM and the inhibition at 10 µM was 74.4%.

As to `Cc1noc(NS(=O)(=O)c2ccc(Nc3cc(-c4c(F)cccc4OC(C)C)ncn3)cc2)c1C` [Example 23, N-(3,4-Dimethyl-isoxazol-5-yl)-4-[6-(2-fluoro-6-isopropoxy-phenyl)-pyrimidin-4-ylamino]-benzenesulfonamide], in data set [1], the inhibition at 20 µM stood at 102% and the MIC was determined as 10.2 µM (≈ 5.1 µg/mL). In addition, in data set [3], the IC50 stood at 1780 nM and the inhibition at 10 µM came to 70.4%.

In the case of `Cc1noc(NS(=O)(=O)c2ccc(Nc3cc(-c4ccccc4Oc4ccccc4)ncn3)cc2)c1C` [Example 4, N-(3,4-Dimethyl-isoxazol-5-yl)-4-[6-(2-phenoxy-phenyl)-pyrimidin-4-ylamino]-benzenesulfonamide], the inhibition at 20 µM in data set [1] is 39%. Moreover, the inhibition at 10 µM in data set [3] was 52.7%.

As to `CCc1ccccc1-c1cc(Nc2ccc(S(=O)(=O)Nc3onc(C)c3C)cc2)ncn1` [Example 20, N-(3,4-Dimethyl-isoxazol-5-yl)-4-[6-(2-ethyl-phenyl)-pyrimidin-4-ylamino]-benzenesulfonamide], in data set [1], the inhibition at 20 µM was found to be 103% and the MIC was 4.84 µM (≈ 2.18 µg/mL). In addition, in data set [3], the IC50 is 960 nM and the inhibition at 10 µM came to 73%.

Take `COc1cc(F)ccc1-c1cc(Nc2ccc(S(=O)(=O)Nc3onc(C)c3C)cc2)ncn1` [Example 18, N-(3,4-Dimethyl-isoxazol-5-yl)-4-[6-(4-fluoro-2-methoxy-phenyl)-pyrimidin-4-ylamino]-benzenesulfonamide]: the inhibition at 20 µM in data set [1] was -8.6%. Further, in data set [3], the half-inhibitory concentration (IC50) is 40 nM and the inhibition at 10 µM worked out at 63.3%.

As to `COc1ccccc1-c1cc(Nc2ccc(S(=O)(=O)Nc3cc(C)on3)cc2)ncn1` [Example 33, 4-[6-(2-Methoxy-phenyl)-pyrimidin-4-ylamino]-N-(5-methyl-isoxazol-3-yl)-benzenesulfonamide], the inhibition at 20 µM in data set [1] was -30.6%. The inhibition at 10 µM in data set [3] came to 57.8%.

In the case of `COc1ccc(C(C)C)cc1-c1cc(Nc2ccc(S(=O)(=O)Nc3onc(C)c3C)cc2)ncn1` [Example 5, N-(3,4-Dimethyl-isoxazol-5-yl)-4-[6-(5-isopropyl-2-methoxy-phenyl)-pyrimidin-4-ylamino]-benzenesulfonamide], in data set [1], the inhibition at 20 µM was determined as 99.2% and the MIC was 16 µM (≈ 7.9 µg/mL). Besides, the inhibition at 10 µM in data set [3] amounted to 43.2%.

In the case of `CCOc1ccccc1-c1cc(Nc2ccc(S(=O)(=O)Nc3onc(C)c3C)cc2)ncn1` [Example 8, N-(3,4-Dimethyl-isoxazol-5-yl)-4-[6-(2-ethoxy-phenyl)-pyrimidin-4-ylamino]-benzenesulfonamide], the inhibition at 20 µM in data set [1] was -48.4%. In data set [3], the IC50 is 1250 nM and the inhibition at 10 µM amounted to 82.4%.

Regarding `Cc1noc(NS(=O)(=O)c2ccc(Nc3cc(-c4cc(Cl)ccc4OC(C)C)ncn3)cc2)c1C` [Example 24, 4-[6-(5-Chloro-2-isopropoxy-phenyl)-pyrimidin-4-ylamino]-N-(3,4-dimethyl-isoxazol-5-yl)-benzenesulfonamide], in data set [1], the inhibition at 20 µM was -20.4%. Moreover, in data set [3], the IC50 is 3750 nM and the inhibition at 10 µM worked out at 80.7%.

Take `Cc1noc(NS(=O)(=O)c2ccc(Nc3cc(-c4ccccc4)ncn3)cc2)c1C` [Example 39, N-(3,4-Dimethyl-isoxazol-5-yl)-4-(6-phenyl-pyrimidin-4-ylamino)-benzenesulfonamide]: the inhibition at 20 µM in data set [1] is -22.2%. For the same compound, in data set [3], the inhibition at 10 µM worked out at 57.9%.

Regarding `CC(=O)Nc1ccc(-c2cc(Nc3ccc(S(=O)(=O)Nc4onc(C)c4C)cc3)ncn2)cc1` [Example 27, N-(4-{6-[4-(3,4-Dimethyl-isoxazol-5-ylsulfamoyl)-phenylamino]-pyrimidin-4-yl}-phenyl)-acetamide], the inhibition at 20 µM in data set [1] was -11.9%. In addition, in data set [3], 372 nM corresponded to half-maximal inhibition (IC50) and the inhibition at 10 µM is 68.7%.

`Cc1noc(NS(=O)(=O)c2ccc(Nc3cc(-c4ccccc4OC(C)C)ncn3)cc2)c1C` [Example 13, N-(3,4-Dimethyl-isoxazol-5-yl)-4-[6-(2-isopropoxy-phenyl)-pyrimidin-4-ylamino]-benzenesulfonamide]: the inhibition at 20 µM in data set [1] is -23%. Moreover, in data set [3], the IC50 was 1820 nM and the inhibition at 10 µM worked out at 88.6%.

Regarding `Cc1noc(NS(=O)(=O)c2ccc(Nc3cc(-c4ccccc4C(F)(F)F)ncn3)cc2)c1C` [Example 1, N-(3,4-Dimethyl-isoxazol-5-yl)-4-[6-(2-trifluoromethyl-phenyl)-pyrimidin-4-ylamino]-benzenesulfonamide], in data set [1], the inhibition at 20 µM is 101% and the MIC was 2.77 µM (≈ 1.35 µg/mL). In data set [3], the IC50 was found to be 1450 nM and the inhibition at 10 µM was found to be 96.1%.

For `CCCOc1ccccc1-c1cc(Nc2ccc(S(=O)(=O)Nc3onc(C)c3C)cc2)ncn1` [Example 10, N-(3,4-Dimethyl-isoxazol-5-yl)-4-[6-(2-propoxy-phenyl)-pyrimidin-4-ylamino]-benzenesulfonamide], in data set [1], the inhibition at 20 µM is -21.2%. Besides, in data set [3], half-maximal inhibition (IC50) was put at 925 nM and the inhibition at 10 µM came out at 104%.

Turning to `COc1ccc(OC)c(-c2cc(Nc3ccc(S(=O)(=O)Nc4onc(C)c4C)cc3)ncn2)c1` [Example 7, 4-[6-(2,5-Dimethoxy-phenyl)-pyrimidin-4-ylamino]-N-(3,4-dimethyl-isoxazol-5-yl)-benzenesulfonamide], the inhibition at 20 µM in data set [1] was 58.2%. In addition, in data set [3], half-maximal inhibition (IC50) required 189 nM and the inhibition at 10 µM stood at 59.6%.

For `Cc1noc(NS(=O)(=O)c2ccc(Nc3cc(-c4cccc5ccccc45)ncn3)cc2)c1C` [Example 43, N-(3,4-Dimethyl-isoxazol-5-yl)-4-(6-naphthalen-1-yl-pyrimidin-4-ylamino)-benzenesulfonamide], the inhibition at 20 µM in data set [1] is -9.2%. Further, in data set [3], half-maximal inhibition (IC50) was put at 13800 nM and the inhibition at 10 µM was found to be 58.8%.

The IC50 is the concentration that gives 50% inhibition. A high value points to weaker potency in that assay.
